One assay relates to mice or rat models. Kind of assay: Summary of cargo delivery to targeted organ (Table 1). The class given is in vivo. The settings on record: cargoes and route (IV, IM, SQ, NB) per peptide as listed in Table 1. The text has this: Table 1 lists a summary of cell-penetrating peptides that have been proven successful in delivering various cargo molecules to on or more targeted organ (e.g., by intravenous (IV), intramuscular (IM), or subcutaneous (SQ) administration, or intratraccheal instillation or nebulization (NB)) in mice or rat models.

For assay [1], the system named is mice. Kind of assay: In vivo delivery of Luciferase mRNA, intramuscular administration, bioluminescence imaging. The note with it: IM, Luc mRNA. As to the method: FIGS. 5A-5B show the potency of ADGN-peptide variants for in vivo delivery of Luciferase mRNA via intramuscular administration in mice. ADGN-peptide/luc mRNA particles containing 2.5 μg mRNA were formed in sterile water, and then diluted in 5% sucrose. Mice received […] injection o 25 μl ADGN-peptide/mRNA complexes. mRNA LUC expression was monitored by bioluminescence imaging after 12 h, 24 h and 48h (A). FIG. 5B show bioluminescence imaging at 24 hr in control and treated groups.
(§1) Stable ADGN-peptides/mRNA were evaluated for in vivo delivery of Luciferase mRNA via intravenous and intramuscular administrations. Animals were treated with single dose of 5 moU modified Luc mRNA of 5 μg. 5 moU modified Luc mRNA (5 μg) in sterile water (GIBCO) were mixed with ADGN peptide (sterile water), volume for each sample was adjusted to 100 μl, with sterile water containing 5% Sucrose. Samples were mixed gently with vortex for 1 minute at low speed and incubated for 30 min at room temperature. Samples were filtered on 0.45 μm PES filters prior administration. For IV administration Mice received 100 μl intravenous (IV) injection of either ADGN-106/mRNA, ADGN-100/mRNA, ADGN-106RI/mRNA, ADGN-100-stearyl/mRNA, ADGN-100Hydro1/mRNA, ADGN-100Hydro2 or ADGN/mRNA complexes containing 10% of ADGN-100PEG (3 animals per group). As control, mice from group 3 (2 animals per group) received IV injection of 100 μl of naked 5 moU modified Luc mRNA (5 μg). For IM administration, mice received 25 μl (5 μg mRNA) IV injection of either ADGN-100/mRNA, ADGN-106/mRNA, ADGN-106RI/mRNA or ADGN/mRNA complexes containing 10% or 20% of ADGN-100PEG (2 animals per group). As control, mice from group 3 (2 animals per group) received IV injection of 25 μl of naked 5 moU modified Luc mRNA (5 μg).
(§2) mRNA Luc expression was monitored by bioluminescence. Bioluminescence imaging was performed after 12, 24, 48 and 72 hrs. Mice received an i.p. injection of 150 μg/g luciferin for noninvasive bioluminescence imaging (IVIS Kinetic; PerkinElmer, Waltham, MA, USA).

Assay [2] relates to mice. Kind of assay: In vivo delivery of pGL4 plasmid DNA, intravenous administration, bioluminescence imaging. The settings on record: 5 μg pGL4 plasmid. As for the experimental part: FIGS. 6A-6C show the potency of ADGN-peptide variants for in vivo delivery of Luciferase expressing plasmid pGL4 via intravenous administration in mice. ADGN-peptide/pGL4 particles containing 5 μg plasmid DNA were formed in sterile water, and then diluted in 5% sucrose. Mice received IV injection of 100 μl ADGN-peptide/plasmid complexes. pGL4 Luciferase expression was monitored by bioluminescence imaging after 12 h, 24h, 48h and 72h. […] Results were then expressed as values relative to day 0.
(§3) Stable ADGN-peptides/pGL4.11 DNA were evaluated for in vivo delivery of Luciferase mRNA via intravenous and intramuscular administrations. Animals were treated with single dose of pGL4.11 plasmid DNA of 5 μg. via IV and 2.5 μg via intramuscular administration.
pGL4.11 DNA plasmid (5 μg) in sterile water (GIBCO) were mixed with ADGN peptide (sterile water), volume for each sample was adjusted to 100 μl, with sterile water containing 5% Sucrose. Samples were mixed gently with vortex for 1 minute at low speed and incubated for 30 min at room temperature. Samples were filtered on 0.45 μm PES filters prior administration. For IV administration Mice received 100 μl IV injection of either ADGN-106/pGL4, ADGN-100/pGL4, ADGN-100RI/pGL4, ADGN-100-stearyl/PGL4, ADGN-100Hydro1/PGL4, ADGN-100Hydro2/PGL4, ADGN100 Hydro6/PGL4 or ADGN/PGL4 complexes containing 10% or 20% of ADGN-100PEG (3 animals per group). As control, mice from group 3 (2 animals per group) received IV injection of 100 μl of naked pGL4 plasmids (5 μg).
(§4) Luciferase expression was monitored by bioluminescence. Bioluminescence imaging was performed after 12, 24, 48 and 72 hrs. Mice received an i.p. injection of 150 μg/g luciferin for noninvasive bioluminescence imaging (IVIS Kinetic; PerkinElmer, Waltham, MA, USA).

In assay [3] the test system is mice. As to the kind of experiment: In vivo delivery of pGL4 plasmid DNA, intramuscular administration, bioluminescence imaging. The settings on record: IM, 2.5 μg pGL4 plasmid. As to the method:
FIGS. 7A-7B show the potency of ADGN-peptide variants for in vivo delivery of Luciferase expressing plasmid pGL4 via intramuscular administration in mice. ADGN-peptide/pGL4 luc particles containing 2.5 μg plasmid DNA were formed in sterile water, and then diluted in 5% sucrose. Mice received IV injection of 25 μl ADGN-peptide/pGL4 complexes. Luciferase expression was monitored by bioluminescence imaging after 12 h, 24 h and 48h (A). FIG. 7B show bioluminescence imaging at 24 hr in control and treated groups.
as §3
For IM administration, mice received 25 μl (2.5 μg of pGL4 plasmid) IV injection of either ADGN-100/PGL4, ADGN-106/PGL4, ADGN-100RI/PGL4, ADGN-100hydro1/PGL4, ADGN-100hydro6/PGL4, ADGN-100 stearyl/PGL4 or ADGN-100/PGL4 complexes containing 10% or 20% of ADGN-100PEG (2 animals per group). As control, mice from group 3 (2 animals per group) received IV injection of 25 μl of naked PGL4 plasmid (2.5 μg).
as §4

Assay [4] concerns mice. As to the kind of experiment: In vivo delivery of Luciferase mRNA, intravenous administration, bioluminescence imaging. The settings on record: 5 μg Luc mRNA, single dose. As to the method:
FIGS. 4A-4D show the potency of ADGN-peptide variants for in vivo delivery of Luciferase mRNA via intravenous administration in mice. ADGN-peptide/luc mRNA particles containing 5 μg mRNA were formed in sterile water, and then diluted in 5% sucrose. Mice received IV injection of 100 μl ADGN-peptide/mRNA complexes. mRNA LUC expression was monitored by bioluminescence imaging after 12 h, 24 h, 48 h and 72 h. FIG. 4B show bioluminescence imaging at 24 hr in control and treated groups. Semi-quantitative data of luciferase signal in the liver (C) and in the lung (D) were obtained using the manufacturer's software (Living Image; PerkinElmer). Results were then expressed as values relative to day 0.
as §1, §2

Entries after “also recorded” stand apart in the source; their conditions may differ.

On to “Ac-GYVS-Aun(CH2)6-ALWRALWRLWRSLWRLLWKA-NH2 [ADGN-106 hydro-6]”, for which the “Targeted Organ” value in the assay on mice or rat models is “Tumor/Pancreas/ and Lung”. Also, in the assay with mice [1], the “increase of luciferase expression in the muscle / efficiency relative to ADGN-106” value was 4 fold and the luciferase expression result is on record as “mediated Luciferase expression following intramuscular (IM) administration”.

Regarding “Ac-YIGSR-(G)4-KWRSALWRWRLWRVRSWSR-NH2 (Ac-YIGSRGGGGKWRSALWRWRLWRVRSWSR-NH2) [ADGN-100-Hydro-1]”, in the assay on mice [2], the “luciferase expression and tissues” value is listed as “negligible luciferase expression”. Further, in the assay on mice or rat models, the “Targeted Organ” value is “Lung/Kidney/; also recorded: Liver”. Moreover, in the assay on mice [3], the luciferase expression entry is on record as “no significant expression”. Also, in the assay on mice [4], the “mRNA / luciferase expression and tissues” value is given as “negligible luciferase expression”.

The values above are taken from patent US12357695B2, “Peptides and nanoparticles for intracellular delivery of molecules” (AADIGEN, LLC, priority 2019, dated 2025).
